Results on 11 compounds are retold here after patent US12595267B2, “Preparation method for amide compound and application thereof in field of medicine” (Shanghai Synergy Pharmaceutical Sciences Co., Ltd., priority 2019, dated 2026).

Read-outs that look alike come from different tables or passages of the source.

One data set has as its target T1, Mutant EZH2 (Y641N) (Homo sapiens, UniProt Q15910, Y641N).
T1 construct: purchased BPS 51004
Briefly: AlphaLISA assay on mutant PRC2 complex, EZH2 Y641N. Format: biochemical.

The next data set relates to Pfeiffer cells. Briefly: Calcein AM proliferation assay, Pfeiffer cells. To be noted: read-out: Pfeiffer proliferation IC50. Format: cell-based, human.
Data set [1] can be described thus: Pharmacokinetics experiment in rats. Format: in vivo. The conditions noted are these: rat, plasma, male SD rats; for bioavailability: oral 20 mg/kg vs intravenous 4 mg/kg, read-out: Bioavailability (F %); for AUC: read-out: Area under the curve (AUC); for half-life: read-out: Half life (T1/2) (converted); for Cmax: read-out: Blood drug level (Cmax). As to the method: Male SD rats weighing 200-300 g and 8 weeks old were used as experimental animals. […] The pharmacokinetic behavior of the compound of the present invention in rats was studied, and the pharmacokinetic characteristics thereof were evaluated.
A certain amount of the compound was weighed, dissolved in 0.10% tween for vortex and ultrasound, and then 0.5% sodium carboxymethyl cellulose (CMC-Na) solution was added to prepare a uniform solution.
The above-mentioned compounds were applied intravenously and orally to rats at a dose of 4 mg/kg and a dose of 20 mg/kg, respectively. At 0.083 h, 0.25 h, 0.5 h, 1.0 h, 2.0 h, 4.0 h, 6.0 h, 8.0 h, 12.0 h, and 24.0 h after application, 0.2 mL of blood was collected from the orbit, and placed in an anticoagulant tube, which was centrifuged at 6000 rpm for 10 minutes at 4° C. The plasma was separated and stored at −80° C.

The next data set relates to Karpas 422 cells. In words: Calcein AM proliferation assay, Karpas 422 cells. Format: cell-based, human. The conditions noted are these: read-out: Karpas422 proliferation IC50.
The next data set deals with wild-type EZH2 (Homo sapiens, UniProt Q15910). In words: Radiometric assay of activity on wild-type PRC2 EZH2.
A further data set concerns WSU-DLCL2 cells. In words: Calcein AM proliferation assay, WSU-DLCL2 cells. To be noted: read-out: WSU-DLCL2 proliferation IC50. Format: cell-based, human.
Another data set has as its target T2, Mutant EZH2 (Y641F) (Homo sapiens, UniProt Q15910, Y641F).
T2 construct: purchased BPS 51004
Briefly: AlphaLISA assay on mutant PRC2 complex, EZH2 Y641F. Format: biochemical.

Data set [2] relates to WSU-DLCL2 cell mouse xenograft tumor model. In words: Pharmacodynamic experiment in WSU-DLCL2 mouse xenograft tumor model. Format: in vivo. The conditions noted are these: CB17/SCID mice.
A further data set has as its target T3, Mutant EZH2 (A677G) (Homo sapiens, UniProt Q15910, A677G).
T3 construct: purchased BPS 51004
In words: AlphaLISA assay on mutant PRC2 complex, EZH2 A677G. Format: biochemical.

The mark [3] stands for this setting: Homo sapiens, Pfeiffer, day 14 data, Calcein AM staining.
[4] abbreviates: Homo sapiens, KARPAS-422, day 14 data, Calcein AM staining.
Setting [5] is: Homo sapiens, WSUDLCL2, day 14 data, Calcein AM staining.
[6] abbreviates: 150 mg/kg gastric irrigation, 21 days.
[7] abbreviates: day 14 data, Calcein AM staining.

T1 sequence (Q15910 whole entry Y641N): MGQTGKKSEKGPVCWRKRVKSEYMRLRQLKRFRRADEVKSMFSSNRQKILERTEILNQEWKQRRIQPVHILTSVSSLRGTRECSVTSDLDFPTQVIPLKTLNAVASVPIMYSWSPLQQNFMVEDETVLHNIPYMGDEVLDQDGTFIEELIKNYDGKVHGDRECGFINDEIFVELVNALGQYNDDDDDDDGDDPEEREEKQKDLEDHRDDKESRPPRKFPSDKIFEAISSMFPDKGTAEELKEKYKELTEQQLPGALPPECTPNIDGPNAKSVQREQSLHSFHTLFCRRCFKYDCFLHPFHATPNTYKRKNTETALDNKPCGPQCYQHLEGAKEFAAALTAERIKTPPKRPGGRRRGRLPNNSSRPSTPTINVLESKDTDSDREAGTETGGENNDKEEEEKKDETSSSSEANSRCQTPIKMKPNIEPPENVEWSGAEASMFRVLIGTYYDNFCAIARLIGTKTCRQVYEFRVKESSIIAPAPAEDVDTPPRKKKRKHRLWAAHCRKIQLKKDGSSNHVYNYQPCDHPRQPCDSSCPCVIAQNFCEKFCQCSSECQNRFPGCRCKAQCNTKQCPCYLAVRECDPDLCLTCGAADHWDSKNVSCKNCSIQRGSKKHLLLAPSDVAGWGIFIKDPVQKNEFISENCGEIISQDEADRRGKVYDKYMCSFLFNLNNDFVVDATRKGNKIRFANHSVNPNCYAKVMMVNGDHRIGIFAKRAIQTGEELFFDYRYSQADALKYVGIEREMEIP
T1 sequence (O75530 whole entry partner): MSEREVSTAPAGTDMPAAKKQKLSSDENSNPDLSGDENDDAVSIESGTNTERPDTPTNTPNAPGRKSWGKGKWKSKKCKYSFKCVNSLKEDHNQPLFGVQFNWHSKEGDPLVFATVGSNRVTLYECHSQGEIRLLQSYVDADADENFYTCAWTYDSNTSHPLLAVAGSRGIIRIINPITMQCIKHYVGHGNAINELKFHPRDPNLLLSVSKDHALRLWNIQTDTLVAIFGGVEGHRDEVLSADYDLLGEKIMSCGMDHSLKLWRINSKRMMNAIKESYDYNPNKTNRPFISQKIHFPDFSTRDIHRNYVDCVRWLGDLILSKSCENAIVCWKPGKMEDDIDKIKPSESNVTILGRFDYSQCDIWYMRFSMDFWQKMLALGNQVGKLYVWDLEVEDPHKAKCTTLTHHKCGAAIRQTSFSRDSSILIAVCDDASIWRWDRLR
T1 sequence (Q15022 whole entry partner): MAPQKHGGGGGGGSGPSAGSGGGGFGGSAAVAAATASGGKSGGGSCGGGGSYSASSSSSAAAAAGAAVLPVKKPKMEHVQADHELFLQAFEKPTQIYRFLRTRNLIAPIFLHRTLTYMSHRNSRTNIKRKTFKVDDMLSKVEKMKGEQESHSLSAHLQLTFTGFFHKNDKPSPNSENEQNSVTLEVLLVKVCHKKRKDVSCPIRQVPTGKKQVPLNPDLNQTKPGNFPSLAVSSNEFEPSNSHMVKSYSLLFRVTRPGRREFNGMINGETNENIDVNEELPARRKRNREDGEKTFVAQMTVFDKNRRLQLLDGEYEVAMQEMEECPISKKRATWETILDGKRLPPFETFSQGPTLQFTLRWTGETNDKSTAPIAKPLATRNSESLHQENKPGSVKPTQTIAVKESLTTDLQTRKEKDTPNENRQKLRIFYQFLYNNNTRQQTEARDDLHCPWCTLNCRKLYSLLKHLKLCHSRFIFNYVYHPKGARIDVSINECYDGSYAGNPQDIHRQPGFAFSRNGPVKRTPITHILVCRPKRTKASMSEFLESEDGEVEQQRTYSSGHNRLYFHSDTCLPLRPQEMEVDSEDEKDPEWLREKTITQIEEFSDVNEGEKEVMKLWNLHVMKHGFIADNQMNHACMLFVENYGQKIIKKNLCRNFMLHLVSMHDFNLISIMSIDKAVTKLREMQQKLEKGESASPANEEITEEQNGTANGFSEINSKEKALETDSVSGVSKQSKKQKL
T1 sequence (Q09028 whole entry partner): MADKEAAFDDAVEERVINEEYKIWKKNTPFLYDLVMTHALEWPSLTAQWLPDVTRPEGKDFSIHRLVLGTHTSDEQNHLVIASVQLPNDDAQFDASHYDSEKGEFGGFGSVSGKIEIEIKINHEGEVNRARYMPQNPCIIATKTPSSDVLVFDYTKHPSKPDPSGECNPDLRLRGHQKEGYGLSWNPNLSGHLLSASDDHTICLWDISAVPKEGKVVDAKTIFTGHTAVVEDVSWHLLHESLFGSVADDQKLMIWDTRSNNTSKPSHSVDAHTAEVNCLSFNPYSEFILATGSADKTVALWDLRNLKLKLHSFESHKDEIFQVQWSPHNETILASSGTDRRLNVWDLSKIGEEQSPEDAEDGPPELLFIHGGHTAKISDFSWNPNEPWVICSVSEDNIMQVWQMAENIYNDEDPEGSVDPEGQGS
T1 sequence (Q6ZN18 whole entry partner): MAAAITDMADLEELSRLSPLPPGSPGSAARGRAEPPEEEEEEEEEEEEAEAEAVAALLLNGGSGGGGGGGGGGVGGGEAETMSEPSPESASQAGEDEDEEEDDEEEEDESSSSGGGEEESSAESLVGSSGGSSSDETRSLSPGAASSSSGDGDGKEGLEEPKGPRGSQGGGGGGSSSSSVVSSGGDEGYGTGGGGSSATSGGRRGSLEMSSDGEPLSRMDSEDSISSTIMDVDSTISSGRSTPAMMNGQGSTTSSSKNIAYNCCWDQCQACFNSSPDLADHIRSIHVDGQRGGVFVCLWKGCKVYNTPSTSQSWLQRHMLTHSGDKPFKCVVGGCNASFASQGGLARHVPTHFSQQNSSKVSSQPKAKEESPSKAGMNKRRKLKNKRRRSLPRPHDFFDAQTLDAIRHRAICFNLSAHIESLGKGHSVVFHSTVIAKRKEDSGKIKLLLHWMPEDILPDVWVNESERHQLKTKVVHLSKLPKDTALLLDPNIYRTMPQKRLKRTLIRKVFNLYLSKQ
wild-type EZH2, sequence (Q15910 whole entry): as the sequence (Q15910 whole entry Y641N) above, with N641Y counted along it
wild-type EZH2, sequence (O75530 whole entry partner): as the sequence (O75530 whole entry partner) above
wild-type EZH2, sequence (Q15022 whole entry partner): as the sequence (Q15022 whole entry partner) above
wild-type EZH2, sequence (Q09028 whole entry partner): as the sequence (Q09028 whole entry partner) above
T3 sequence (Q15910 whole entry A677G): as the sequence (Q15910 whole entry Y641N) above, with N641Y, A677G counted along it
T3 sequence (O75530 whole entry partner): as the sequence (O75530 whole entry partner) above
T3 sequence (Q15022 whole entry partner): as the sequence (Q15022 whole entry partner) above
T3 sequence (Q09028 whole entry partner): as the sequence (Q09028 whole entry partner) above
T3 sequence (Q6ZN18 whole entry partner): as the sequence (Q6ZN18 whole entry partner) above
T2 sequence (Q15910 whole entry Y641F): as the sequence (Q15910 whole entry Y641N) above, with N641F counted along it
T2 sequence (O75530 whole entry partner): as the sequence (O75530 whole entry partner) above
T2 sequence (Q15022 whole entry partner): as the sequence (Q15022 whole entry partner) above
T2 sequence (Q09028 whole entry partner): as the sequence (Q09028 whole entry partner) above
T2 sequence (Q6ZN18 whole entry partner): as the sequence (Q6ZN18 whole entry partner) above

As to `CCN(c1cc(-c2ccc3c(c2)CCC3N2CCOCC2)c(Cl)c(C(=O)NCc2c(C)cc(C)[nH]c2=O)c1C)C1CCOCC1` (stereo not drawn) [Compound 10, 2-chloro-N-((4,6-dimethyl-2-oxo-1,2-dihydropyridin-3-yl)methyl)-5-(ethyl(tetrahydro-2H-pyran-4-yl)amino)-6-methyl-3-(1-morpholino-2,3-dihydro-1H-inden-5-yl)benzamide], the IC50 against Mutant EZH2 (Y641N) is 0.3 nM; in the data set on Pfeiffer cells (setting [3]) it was 0.38 nM; in the data set with Karpas 422 cells (setting [4]), 0.58 nM; on wild-type EZH2, 0.63 nM; with WSU-DLCL2 cells (setting [5]), 1.17 nM; against Mutant EZH2 (Y641F) it was 0.58 nM. Moreover, the bioavailability in data set [1] was found to be 30.6%. Besides, the values for the AUC in [1] (intravenous dosing 4 mg/kg) and in data set [1] (oral dosing 20 mg/kg) were 937 ng·h/mL and 1440 ng·h/mL, respectively. Besides, in data set [1] (intravenous dosing 4 mg/kg), the half-life was 1.64 h. Besides, the Cmax in data set [1] (oral dosing 20 mg/kg) was found to be 405 ng/mL.

Consider `CCN(c1cc(-c2ccc3c(c2)CCC3N2CCOCC2)c(Cl)c(C(=O)NCc2c(OC)cc(C)[nH]c2=O)c1C)C1CCOCC1` (stereo not drawn) [Compound 12, 2-chloro-5-(ethyl(tetrahydro-2H-pyran-4-yl)amino)-N-((4-methoxy-6-methyl-2-carbonyl-1,2-dihydropyridin-3-yl)methyl)-6-methyl-3-(1-morpholino-2,3-dihydro-1H-inden-5-yl)benzamide], for which the IC50 with Pfeiffer cells (Homo sapiens, Pfeiffer, […]) is 1.69 nM; with Karpas 422 cells (Homo sapiens, KARPAS-422, […]), 1.84 nM; with WSU-DLCL2 cells (Homo sapiens, WSUDLCL2, […]), 2.36 nM. The bioavailability in [1] amounted to 27.4%. The AUC in data set [1] (intravenous dosing 4 mg/kg) is 956 ng·h/mL; in data set [1] (oral dosing 20 mg/kg), 1310 ng·h/mL. Besides, in [1] (intravenous dosing 4 mg/kg), the half-life was 1.42 h. The Cmax in data set [1] (oral dosing 20 mg/kg) turned out to be 480 ng/mL. The tumor growth inhibition in data set [2] (setting [6]) was found to be 85%.

As for `CCN(c1cc(N2Cc3ccccc3C2)cc(C(=O)NCc2c(C)cc(C)[nH]c2=O)c1C)C1CCOCC1` [Compound 15, N-4,6-((dimethyl-2-oxo-1,2-dihydropyridin-3-yl)methyl)-3-(ethyl (tetrahydro-2H-pyran-4-yl)amino)-5-(5-isoindolin-2-yl)-2-methylbenzamide], the IC50 was 0.24 nM at Mutant EZH2 (A677G); 0.1 nM on Mutant EZH2 (Y641N); 0.93 nM in the data set on Pfeiffer cells (setting [3]); 2.15 nM in the data set with Karpas 422 cells (setting [4]); 2.46 nM with WSU-DLCL2 cells (setting [5]); 0.78 nM against Mutant EZH2 (Y641F). Moreover, the bioavailability in data set [1] is 34.5%. For the same compound, the AUC in data set [1] (intravenous dosing 4 mg/kg) was found to be 893 ng·h/mL; in data set [1] (oral dosing 20 mg/kg), 1540 ng·h/mL. Moreover, the half-life in [1] (intravenous dosing 4 mg/kg) is 1.42 h. Also, the Cmax in [1] (oral dosing 20 mg/kg) was 500 ng/mL.

In the case of `CCN(c1cc(N2CCc3ccccc3C2)cc(C(=O)NCc2c(C)cc(C)[nH]c2=O)c1C)C1CCOCC1` [Compound 16, 5-(3,4-dihydroisoquinoline-2(1H)-yl)-N-((4,6-dimethyl-2-oxo-1,2-dihydropyridin-3-yl)methyl)-3-(ethyl(tetrahydro-2H-pyran-4-yl)amino)-2-methylbenzamide], the IC50 at Mutant EZH2 (A677G) is 0.74 nM; against Mutant EZH2 (Y641N), 0.61 nM; with Pfeiffer cells (setting [3]), 1.87 nM; in the data set on Karpas 422 cells (setting [4]) it was 3.34 nM; against wild-type EZH2 it was 0.95 nM; in the data set on WSU-DLCL2 cells (setting [5]) it was 5.12 nM. At Mutant EZH2 (Y641F), the IC50 worked out at 0.82 nM. Also, in data set [1], the bioavailability is 24.4%. Also, the AUC worked out at 975 ng·h/mL in [1] (intravenous dosing 4 mg/kg) and 1190 ng·h/mL in data set [1] (oral dosing 20 mg/kg). In addition, in data set [1] (intravenous dosing 4 mg/kg), the half-life was 1.87 h. Besides, the Cmax in data set [1] (oral dosing 20 mg/kg) came out at 433 ng/mL.

Regarding `CCN(c1cc(N2Cc3ccc(N4CCOCC4)cc3C2)cc(C(=O)NCc2c(C)cc(C)[nH]c2=O)c1C)C1CCOCC1` [Compound 18, N-((4,6-dimethyl-2-oxo-1,2-dihydropyridin-3-yl)methyl)-3-(ethyl (tetrahydro-2H-pyran-4-yl)amino)-2-methyl-5-(5-morpholinoisoindolin-2-yl) benzamide], the IC50 at Mutant EZH2 (A677G) was 0.64 nM; at Mutant EZH2 (Y641N), 0.5 nM; in the data set with Pfeiffer cells (setting [3]) it was 1.86 nM; with Karpas 422 cells (setting [4]) it was 2.34 nM; on wild-type EZH2 it was 0.8 nM; in the data set with WSU-DLCL2 cells (setting [5]) it was 2.89 nM. On Mutant EZH2 (Y641F), this compound registered an IC50 of 0.71 nM. For the same compound, the bioavailability in data set [1] amounted to 34.3%. In addition, the AUC in data set [1] (intravenous dosing 4 mg/kg) was found to be 969 ng·h/mL; in data set [1] (oral dosing 20 mg/kg), 1660 ng·h/mL. Further, the half-life in data set [1] (intravenous dosing 4 mg/kg) is 1.57 h. Moreover, in data set [1] (oral dosing 20 mg/kg), the Cmax was determined as 457 ng/mL.

Consider `CCN(c1cc(N2Cc3cn(C)cc3C2)cc(C(=O)NCc2c(C)cc(C)[nH]c2=O)c1C)C1CCOCC1` [Compound 21, N-((4,6-dimethyl-2-oxo-1,2-dihydropyridin-3-yl)methyl)-3-(ethyl (tetrahydro-2H-pyran-4-yl)amino)-2-methyl-5-(5-methyl-3,5-dihydropyrrolo[3,4-c]pyrrole-2(1H)-yl)benzamide], for which the IC50 in the data set on Pfeiffer cells (setting [3]) was 7.16 nM; in the data set with Karpas 422 cells (setting [4]), 8.15 nM; against wild-type EZH2, 0.9 nM; in the data set on WSU-DLCL2 cells (setting [5]), 9.38 nM. Also, the bioavailability in [1] turned out to be 26.8%. The AUC in data set [1] (intravenous dosing 4 mg/kg) was 932 ng·h/mL; in data set [1] (oral dosing 20 mg/kg), 1250 ng·h/mL. In data set [1] (intravenous dosing 4 mg/kg), the half-life is 1.72 h. In addition, the Cmax in data set [1] (oral dosing 20 mg/kg) was 426 ng/mL. The tumor growth inhibition in [2] (setting [6]) is on record as 90%.

On to `CCN(c1cc(N2Cc3ccc(NC4CCOCC4)cc3C2)cc(C(=O)NCc2c(C)cc(C)[nH]c2=O)c1C)C1CCOCC1` [Compound 23], for which the IC50 against Mutant EZH2 (A677G) is 0.66 nM; at Mutant EZH2 (Y641N) it was 0.5 nM; in the data set with Pfeiffer cells (setting [3]), 4.36 nM; in the data set on Karpas 422 cells (setting [4]), 4.09 nM; on wild-type EZH2, 0.89 nM; with WSU-DLCL2 cells (setting [5]), 6.48 nM.

With `CCN(c1cc(-c2cc3c(cc2F)C(N2CCOCC2)CC3)cc(C(=O)NCc2c(C)cc(C)[nH]c2=O)c1C)C1CCOCC1` (stereo not drawn) [Compound 24], the IC50 at Mutant EZH2 (A677G) is 0.61 nM; with Pfeiffer cells (setting [3]), 2.96 nM; with Karpas 422 cells (setting [4]) it was 4.47 nM; against wild-type EZH2 it was 0.87 nM; in the data set on WSU-DLCL2 cells (setting [5]), 5.28 nM.

Take `CCN(c1cc(-c2cc3c(cc2F)C(N2CCOCC2)CC3)c(F)c(C(=O)NCc2c(C)cc(C)[nH]c2=O)c1C)C1CCOCC1` (stereo not drawn) [Compound 28]: the IC50 is 0.5 nM on Mutant EZH2 (A677G); 0.3 nM against Mutant EZH2 (Y641N); 1.53 nM in the data set with Pfeiffer cells (setting [3]); 2.7 nM in the data set on Karpas 422 cells (setting [4]); 0.91 nM against wild-type EZH2; 3.47 nM in the data set on WSU-DLCL2 cells (setting [5]).

As to `CCN(c1cc(-c2ccc3c(c2)CCN3C2CCOCC2)cc(C(=O)NCc2c(C)cc(C)[nH]c2=O)c1C)C1CCOCC1` [Compound 29, N-((4,6-dimethyl-2-oxo-1,2-dihydropyridin-3-yl)methyl)-3-(ethyl (tetrahydro-2H-pyran-4-yl)amino)-2-methyl-5-(1-(1-tetrahydro-2H-pyran-4-yl)indolin-5-yl)benzamide], the IC50 was 1.42 nM in the data set on Pfeiffer cells (setting [3]), 1.99 nM with Karpas 422 cells (setting [4]) and 2.18 nM in the data set with WSU-DLCL2 cells (setting [5]). Moreover, in data set [2] (setting [6]), the tumor growth inhibition was determined as 78%.

As to `CC[C@H](C)n1cc(C)c2c(C(=O)NCc3c(C)cc(C)[nH]c3=O)cc(-c3ccc(N4CCNCC4)nc3)cc21` [GSK126, reference compound], the results for the IC50 with Pfeiffer cells (setting [7]), in the data set with Karpas 422 cells (setting [7]) and with WSU-DLCL2 cells (setting [7]) were 12.2 nM, 20.3 nM and 34.1 nM, respectively. Also, in [2] (50 mg/kg abdominal, once a day for 21 days), the tumor growth inhibition is given as 61%.
